Here are results for 23 molecules from patent publication US10045983B2, “Heteroaryl pyridone and aza-pyrodine compounds” (Genentech, Inc., priority 2011, dated 2018).

A short description of the experiment: CD69 Whole Blood Assay (CD69 Hu Blood FACS). The note with it: Lymphocyte; human whole blood, anti-IgM activated B lymphocytes, FACS; IC70; Table 2 (unit inferred); read-out: CD69 Hu Blood FACS (IC70). Type of experiment: cell-based, human. An outline of the steps:
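Human whole blood stimulated by crosslinking surface IgM with goat F(ab′)2 anti-human IgM; inhibition of CD69 expression on B lymphocytes measured by flow cytometry.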
As a reminder, the IC70 is the concentration needed for an effect of 70%. Turning to `Cn1cc(-c2ccnc(N3CCn4c(cc5c4CCCC5)C3=O)c2CO)cc(Nc2ccc3[nH]cnc3n2)c1=O` [Example 217, 2-[3-(hydroxymethyl)-4-[5-(1H-imidazo[4,5-b]pyridin-5-ylamino)-1-methyl-6-oxo-3-pyridyl]-2-pyridyl]-3,4,6,7,8,9-hexahydropyrazino[1,2-a]indol-1-one], the IC70 is 2.9 µM. Next, `Cc1cc(Nc2cc(-c3ccnc(N4CCn5c(cc6c5CC(C)(C)C6)C4=O)c3CO)cn(C)c2=O)nn1C` [Example 218, 3-[4-[5-[(1,5-dimethylpyrazol-3-yl)amino]-1-methyl-6-oxo-3-pyridyl]-3-(hydroxymethyl)-2-pyridyl]-7,7-dimethyl-1,2,6,8-tetrahydrocyclopenta[3,4]pyrrolo[3,5-b]pyrazin-4-one]: 0.0741 µM; `Cn1cc(-c2ccnc(N3CCn4c(cc5c4CC(C)(C)C5)C3=O)c2CO)nc(Nc2cccc(N)c2)c1=O` [Example 219, 3-[4-[6-(3-aminoanilino)-4-methyl-5-oxo-pyrazin-2-yl]-3-(hydroxymethyl)-2-pyridyl]-7,7-dimethyl-1,2,6,8-tetrahydrocyclopenta[3,4]pyrrolo[3,5-b]pyrazin-4-one]: 0.204 µM; `C[C@H]1CN(C2COC2)CCN1c1ccc(Nc2cc(-c3ccnc(N4CCn5c(cc6c5CCCC6)C4)c3CO)cn(C)c2=O)nc1` [Example 220, 5-[2-(3,4,6,7,8,9-hexahydro-1H-pyrazino[1,2-a]indol-2-yl)-3-(hydroxymethyl)-4-pyridyl]-1-methyl-3-[[5-[(2S)-2-methyl-4-(oxetan-3-yl)piperazin-1-yl]-2-pyridyl]amino]pyridin-2-one]: 1.6 µM. Next, `Cn1cc(-c2ccnc(N3CCn4c(cc5c4CC(C)(C)C5)C3=O)c2CO)cc(Nc2cccc(N)n2)c1=O` [Example 221, 3-[4-[5-[(6-amino-2-pyridyl)amino]-1-methyl-6-oxo-3-pyridyl]-3-(hydroxymethyl)-2-pyridyl]-7,7-dimethyl-1,2,6,8-tetrahydrocyclopenta[3,4]pyrrolo[3,5-b]pyrazin-4-one]: 0.121 µM; `Cc1nccc(Nc2cc(-c3ccnc(N4CCn5c(cc6c5CC(C)(C)C6)C4=O)c3CO)c[nH]c2=O)n1` [Example 222, 3-[3-(hydroxymethyl)-4-[5-[(2-methylpyrimidin-4-yl)amino]-6-oxo-1H-pyridin-3-yl]-2-pyridyl]-7,7-dimethyl-1,2,6,8-tetrahydrocyclopenta[3,4]pyrrolo[3,5-b]pyrazin-4-one]: 0.178 µM. Consider `CN1CCc2nc(Nc3cc(-c4ccnc(N5CCn6c7c(c(F)c6C5=O)CCCC7)c4CO)cn(C)c3=O)sc2C1` [Example 223, 10-fluoro-2-[3-(hydroxymethyl)-4-[1-methyl-5-[(5-methyl-6,7-dihydro-4H-thiazolo[5,4-c]pyridin-2-yl)amino]-6-oxo-3-pyridyl]-2-pyridyl]-3,4,6,7,8,9-hexahydropyrazino[1,2-a]indol-1-one], for which the IC70 was determined as 0.43 µM.

For `C[C@H]1CN(C2COC2)CCN1c1ccc(Nc2cc(-c3ccnc(N4CCn5c(cc6c5CC(C)(C)C6)C4=O)c3CO)nn(C)c2=O)nc1` [Example 224, 3-[3-(hydroxymethyl)-4-[1-methyl-5-[[5-[(2S)-2-methyl-4-(oxetan-3-yl)piperazin-1-yl]-2-pyridyl]amino]-6-oxo-pyridazin-3-yl]-2-pyridyl]-7,7-dimethyl-1,2,6,8-tetrahydrocyclopenta[3,4]pyrrolo[3,5-b]pyrazin-4-one], the IC70 turned out to be 0.0307 µM. Next, `Cc1nccc(Nc2cc(-c3ccnc(N4CCn5c(cc6c5CC(C)(C)C6)C4=O)c3CO)nn(C)c2=O)n1` [Example 225, 3-[3-(hydroxymethyl)-4-[1-methyl-5-[(2-methylpyrimidin-4-yl)amino]-6-oxo-pyridazin-3-yl]-2-pyridyl]-7,7-dimethyl-1,2,6,8-tetrahydrocyclopenta[3,4]pyrrolo[3,5-b]pyrazin-4-one]: 0.766 µM. `Cn1nc(-c2ccnc(N3CCn4c(cc5c4CC(C)(C)C5)C3=O)c2CO)cc(Nc2ccc(C(=O)N3CCOCC3)cn2)c1=O` [Example 226, 3-[3-(hydroxymethyl)-4-[1-methyl-5-[[5-(morpholine-4-carbonyl)-2-pyridyl]amino]-6-oxo-pyridazin-3-yl]-2-pyridyl]-7,7-dimethyl-1,2,6,8-tetrahydrocyclopenta[3,4]pyrrolo[3,5-b]pyrazin-4-one]: the IC70 was 0.117 µM. Turning to `Cn1nc(-c2ccnc(N3CCn4c(cc5c4CCCC5)C3=O)c2CO)cc(Nc2ccc(C(=O)N3CCOCC3)cn2)c1=O` [Example 227, 2-[3-(hydroxymethyl)-4-[1-methyl-5-[[5-(morpholine-4-carbonyl)-2-pyridyl]amino]-6-oxo-pyridazin-3-yl]-2-pyridyl]-3,4,6,7,8,9-hexahydropyrazino[1,2-a]indol-1-one], the IC70 came out at 0.73 µM. Next, `C[C@H]1CN(C2COC2)CCN1c1cnc(Nc2cc(-c3ccnc(N4CCn5c(cc6c5CCCC6)C4=O)c3CO)cn(C)c2=O)cn1` [Example 228, 2-[3-(hydroxymethyl)-4-[1-methyl-5-[[5-[(2S)-2-methyl-4-(oxetan-3-yl)piperazin-1-yl]pyrazin-2-yl]amino]-6-oxo-3-pyridyl]-2-pyridyl]-3,4,6,7,8,9-hexahydropyrazino[1,2-a]indol-1-one]: 0.369 µM; `CCc1nccc(Nc2cc(-c3ccnc(N4CCn5c(cc6c5CC(C)(C)C6)C4=O)c3CO)cn(C)c2=O)n1` [Example 229, 3-[4-[5-[(2-ethylpyrimidin-4-yl)amino]-1-methyl-6-oxo-3-pyridyl]-3-(hydroxymethyl)-2-pyridyl]-7,7-dimethyl-1,2,6,8-tetrahydrocyclopenta[3,4]pyrrolo[3,5-b]pyrazin-4-one]: 0.583 µM. For `C[C@H]1CN(C2COC2)CCN1c1cnc(Nc2cc(-c3ccnc(-n4ncc5c6c(sc5c4=O)CCCC6)c3CO)cn(C)c2=O)cn1` [Example 230, 3-[3-(hydroxymethyl)-4-[1-methyl-5-[[5-[(2S)-2-methyl-4-(oxetan-3-yl)piperazin-1-yl]pyrazin-2-yl]amino]-6-oxo-3-pyridyl]-2-pyridyl]-6,7,8,9-tetrahydrobenzothiopheno[2,3-d]pyridazin-4-one], the 70% effect concentration (IC70) amounted to 0.179 µM. Consider `C[C@H]1CN(C2COC2)CCN1c1ccc(Nc2cc(-c3ccnc(N4CCn5c6c(c(F)c5C4=O)CCCC6)c3CO)nn(C)c2=O)nc1` [Example 231, 10-fluoro-2-[3-(hydroxymethyl)-4-[1-methyl-5-[[5-[(2S)-2-methyl-4-(oxetan-3-yl)piperazin-1-yl]-2-pyridyl]amino]-6-oxo-pyridazin-3-yl]-2-pyridyl]-3,4,6,7,8,9-hexahydropyrazino[1,2-a]indol-1-one], for which the IC70 was 0.0624 µM. Next, `CN1CCC(c2ccc(Nc3cc(-c4ccnc(N5CCn6c(cc7c6CCCC7)C5=O)c4CO)cn(C)c3=O)nc2)CC1` [Example 232, 2-[3-(hydroxymethyl)-4-[1-methyl-5-[[5-(1-methyl-4-piperidyl)-2-pyridyl]amino]-6-oxo-3-pyridyl]-2-pyridyl]-3,4,6,7,8,9-hexahydropyrazino[1,2-a]indol-1-one]: 0.0518 µM; `Cn1cc(-c2ccnc(N3CCn4c(cc5c4CC(C)(C)C5)C3=O)c2CO)cc(Nc2nc3c(s2)CNCC3)c1=O` [Example 233, 3-[3-(hydroxymethyl)-4-[1-methyl-6-oxo-5-(4,5,6,7-tetrahydrothiazolo[5,4-c]pyridin-2-ylamino)-3-pyridyl]-2-pyridyl]-7,7-dimethyl-1,2,6,8-tetrahydrocyclopenta[3,4]pyrrolo[3,5-b]pyrazin-4-one]: 0.0657 µM; `CC(=O)N1CCc2nc(Nc3cc(-c4ccnc(N5CCn6c7c(c(F)c6C5=O)CCCC7)c4CO)cn(C)c3=O)sc2C1` [Example 234, 2-[4-[5-[(5-acetyl-6,7-dihydro-4H-thiazolo[5,4-c]pyridin-2-yl)amino]-1-methyl-6-oxo-3-pyridyl]-3-(hydroxymethyl)-2-pyridyl]-10-fluoro-3,4,6,7,8,9-hexahydropyrazino[1,2-a]indol-1-one]: 0.183 µM. Regarding `C[C@H]1CN(C2COC2)CCN1c1cnc(Nc2cc(-c3ccnc(N4CCn5c(cc6c5CC(C)(C)C6)C4=O)c3CO)cn(C)c2=O)cn1` [Example 235, 3-[3-(hydroxymethyl)-4-[1-methyl-5-[[5-[(2S)-2-methyl-4-(oxetan-3-yl)piperazin-1-yl]pyrazin-2-yl]amino]-6-oxo-3-pyridyl]-2-pyridyl]-7,7-dimethyl-1,2,6,8-tetrahydrocyclopenta[3,4]pyrrolo[3,5-b]pyrazin-4-one], the IC70 was found to be 0.112 µM. Next, `CN1CCC(c2ccc(Nc3cc(-c4ccnc(N5CCn6c(cc7c6CC(C)(C)C7)C5=O)c4CO)cn(C)c3=O)nc2)CC1` [Example 236, 3-[3-(hydroxymethyl)-4-[1-methyl-5-[[5-(1-methyl-4-piperidyl)-2-pyridyl]amino]-6-oxo-3-pyridyl]-2-pyridyl]-7,7-dimethyl-1,2,6,8-tetrahydrocyclopenta[3,4]pyrrolo[3,5-b]pyrazin-4-one]: 0.0336 µM. For the molecule `C[C@H]1CN(C2COC2)CCN1c1ccc(Nc2cc(-c3ccnc(N4CCc5c(c(F)c6n5CCCC6)C4=O)c3CO)cn(C)c2=O)nc1` [Example 237, 10-fluoro-2-[3-(hydroxymethyl)-4-[1-methyl-5-[[5-[(2S)-2-methyl-4-(oxetan-3-yl)piperazin-1-yl]-2-pyridyl]amino]-6-oxo-3-pyridyl]-2-pyridyl]-3,4,6,7,8,9-hexahydropyrido[3,4-b]indolizin-1-one], the IC70 is 0.0461 µM. On to `CN1CC(c2ccc(Nc3cc(-c4ccnc(N5CCn6c(cc7c6CCCC7)C5=O)c4CO)cn(C)c3=O)nc2)C1` [Example 239, 2-[3-(hydroxymethyl)-4-[1-methyl-5-[[5-(1-methylazetidin-3-yl)-2-pyridyl]amino]-6-oxo-3-pyridyl]-2-pyridyl]-3,4,6,7,8,9-hexahydropyrazino[1,2-a]indol-1-one], for which the IC70 amounted to 0.153 µM. Next, `CN1CC(c2ccc(Nc3cc(-c4ccnc(N5CCn6c(cc7c6CC(C)(C)C7)C5=O)c4CO)cn(C)c3=O)nc2)C1` [Example 240, 3-[3-(hydroxymethyl)-4-[1-methyl-5-[[5-(1-methylazetidin-3-yl)-2-pyridyl]amino]-6-oxo-3-pyridyl]-2-pyridyl]-7,7-dimethyl-1,2,6,8-tetrahydrocyclopenta[3,4]pyrrolo[3,5-b]pyrazin-4-one]: 0.0229 µM.
